Data published in PMC11597774, “Investigation of Antimicrobial and Anti-Inflammatory Efficacy of Newly Synthesized Pyrogallol-Coumarin Hybrids: In Vitro and In Silico Studies” (Pharmaceutics, 2024).
pIC50: −log10 of the molar value. In brackets after ≈: the same amount, converted by molar mass. Like-named read-outs stand apart in the source and are kept apart here.

Assays:
B. subtilis (isolate) = assay: Microdilution MIC/MMC with resazurin; format: cell-based, Bacillus subtilis; conditions: for MIC: Bacillus subtilis
Procedure: (§1) The antimicrobial activity of PCH-1 and PCH-2 was tested against 13 microorganisms. The experiment included four standard strains, Staphylococcus aureus ATCC 6538, Bacillus subtilis ATCC 6633, Proteus mirabilis ATCC 12453, and Pseudomonas aeruginosa ATCC 27853; five isolates, Staphylococcus aureus, Escherichia coli, Salmonella enterica, Klebsiella pneumoniae, and Bacillus subtilis; and one probiotic strain Lactobacillus plantarum 299V. Additionally, three fungal strains were tested, including one standard strain, Candida albicans ATCC 10231, and two isolates, Saccharomyces cerevisiae and probiotic strain Saccharomyces boulardii.
(§2) The bacterial suspensions were prepared using the direct colony method. The turbidity of the initial suspension was adjusted using a densitometer (DEN-1, BioSan, Latvia). When adjusted to the turbidity of the 0.5 McFarland standard, the bacterial suspension contains approximately 10^8 colony-forming units (CFU)/mL, and the yeast suspension contains approximately 10^6 CFU/mL. For the experiment, the initial suspension was further diluted at a 1:100 ratio in a sterile 0.85% saline solution.
(§3) The antimicrobial activity was assessed by determining the minimum inhibitory concentrations (MICs) and minimum microbicidal concentrations (MMCs) using the microdilution plate method with resazurin (Alfa Aesar GmbH & Co. (KG, Karlsruhe, Germany)). For this, 96-well plates were prepared by adding 100 μL of Mueller Hinton broth (Torlak, Belgrade, Serbia) for bacterial tests and Sabouraud broth (Torlak, Belgrade, Serbia) for yeast into each well. The tested PCH-1 and PCH-2 were dissolved in 10% dimethyl sulfoxide (DMSO) and then diluted into sterile distilled water. A 100 μL sample from the stock solution of the tested compound was then added to the first row of the plate, followed by twofold serial dilutions using a multichannel pipette. This produced a concentration range from 2.69 to 0.0025 µmol/L. The method is described in detail in the reported paper.
(§4) Each test setup included growth control and sterility control. […] Minimum microbicidal concentrations (MMCs) were determined as described in detail in the reported paper.

B. subtilis ATCC 6633 = assay: Microdilution MIC/MMC with resazurin; format: cell-based, Bacillus subtilis; conditions: for MIC: Bacillus subtilis, ATCC6633
Procedure: as §1, §2, §3, §4

S. aureus ATCC 25923 [1] = assay: Microdilution MIC/MMC with resazurin; format: cell-based, Staphylococcus aureus; conditions: for MIC: Staphylococcus aureus, ATCC25923
L. plantarum 299V = assay: Microdilution MIC/MMC with resazurin; format: cell-based, Lactobacillus plantarum; conditions: for MIC: Lactiplantibacillus plantarum
Procedure: as §1, §2, §3, §4

K. pneumoniae = assay: Microdilution MIC/MMC with resazurin; format: cell-based, Klebsiella pneumoniae; conditions: for MIC: Klebsiella pneumoniae
Procedure: as §1, §2, §3, §4

P. mirabilis ATCC 12453 [2] = assay: Microdilution MIC/MMC with resazurin; format: cell-based, Proteus mirabilis; conditions: for MIC: Proteus mirabilis, ATCC12453
Procedure: as §1, §2, §3, §4

P. aeruginosa ATCC 27853 [3] = assay: Microdilution MIC/MMC with resazurin; format: cell-based, Pseudomonas aeruginosa; conditions: for MIC: Pseudomonas aeruginosa, ATCC27853
Procedure: as §1, §2, §3, §4

E. coli = assay: Microdilution MIC/MMC with resazurin; format: cell-based, Escherichia coli; conditions: for MIC: Escherichia coli
Procedure: as §1, §2, §3, §4

S. enterica = assay: Microdilution MIC/MMC with resazurin; format: cell-based, Salmonella enterica; conditions: for MMC: S. enterica; for MIC: Salmonella enterica
Procedure: as §1, §2, §3, §4

C. albicans ATCC 10231 = assay: Microdilution MIC/MMC with resazurin; format: cell-based, Candida albicans; conditions: for MIC: Candida albicans, ATCC10231
Procedure: as §1, §2, §3, §4

S. cerevisiae = assay: Microdilution MIC/MMC with resazurin; format: cell-based, Saccharomyces cerevisiae; conditions: for MIC: Saccharomyces cerevisiae
Procedure: as §1, §2, §3, §4

S. boulardii = assay: Microdilution MIC/MMC with resazurin; format: cell-based, Saccharomyces boulardii; conditions: for MIC: Saccharomyces cerevisiae
Procedure: as §1, §2, §3, §4

S. aureus ATCC 25923 [4] = assay: Inhibition of biofilm formation (crystal violet); format: cell-based, Staphylococcus aureus; conditions: for BIC90: S. aureus ATCC 25923, 48 h; for pIC50: Staphylococcus aureus, ATCC25923, S. aureus ATCC 25923, 48 h, read-out: BIC50
P. mirabilis ATCC 12453 [5] = assay: Inhibition of biofilm formation (crystal violet); format: cell-based, Proteus mirabilis; conditions: for BIC90: P. mirabilis ATCC 12453, 48 h; for pIC50: Proteus mirabilis, ATCC12453, P. mirabilis ATCC 12453, 48 h, read-out: BIC50
Procedure: (§5) The ability of S. aureus ATCC 6538, P. mirabilis ATCC 12453, and P. aeruginosa ATCC 27853 to form biofilms was assayed as described by O’Toole et al. (2000), with some modifications. Briefly, tissue culture 96-well microtiter plates (Sarstedt, Germany) were prepared by dispensing 100 µL of nutrient broth (i.e., Mueller Hinton broth) into each well. Then, 10 µL of spore suspension (1.0 McFarland for Gram-positive bacteria and 0.5 McFarland for Gram-negative bacteria) was added to each row. To encourage biofilm formation, all plates were incubated at 37 °C for 48 h, after which the content of each well was emptied and washed twice with 200 µL of sterile 0.85% saline to remove non-adherent cells. The biofilms formed were fixed by adding 100 µL of methanol until it evaporated completely, then stained with 0.1% (w/v) crystal violet (Fluka AG, Buchs, Switzerland) and left at room temperature for 20 min. The excess stain was washed away with deionized water, followed by […] of 96% ethanol. The optical densities (ODs) of the stained biofilms were measured with an ELISA plate reader (RT-2100C, Rayto, Shenzhen, China) at 630 nm. Control wells containing only broth were included to verify sterility and prevent nonspecific media binding. To account for background absorbance, OD readings from sterile medium, fixative, and dye were averaged and subtracted from all test measurements. All tests were conducted in duplicate. The tissue culture 96-well microtiter plates (Sarstedt, Germany) were prepared by dispensing 100 µL of nutrient broth (i.e., Mueller Hinton broth) into each well. From the stock solutions of tested PCH-1 and PCH-2 (at a concentration of 5.4 µmol/L), 100 µL was added to the first row of the microtiter plate. Twofold serial dilutions were then performed, followed by the addition of 10 µL of bacterial suspension to each well. The turbidity of the bacterial suspension was 0.5 McFarland for Gram-negative bacteria and 1.0 McFarland for Gram-positive bacteria. The microtiter plates prepared in this way were incubated at 37 °C for 48 h. The remaining steps of the experiment were carried out as outlined below. […] Only broth or broth with tested PCH-1 and PCH-2 served as controls to check sterility and nonspecific binding of media. To compensate for background absorbance, OD readings from sterile medium, extracts, fixative, and dye were averaged and subtracted from all test values. All tests were performed in duplicate.

P. aeruginosa ATCC 27853 [6] = assay: Inhibition of biofilm formation (crystal violet); format: cell-based, Pseudomonas aeruginosa; conditions: for BIC90: P. aeruginosa ATCC 27853, 48 h; for pIC50: Pseudomonas aeruginosa, ATCC27853, P. aeruginosa ATCC 27853, 48 h, read-out: BIC50
Procedure: as §5

SMILES | MMC (B. subtilis (isolate)) | MIC (B. subtilis (isolate)) | MMC (B. subtilis ATCC 6633) | MIC (B. subtilis ATCC 6633) | MMC (S. aureus ATCC 25923 [1]) | MIC (S. aureus ATCC 25923 [1]) | MMC (L. plantarum 299V) | MIC (L. plantarum 299V) | MMC (K. pneumoniae) | MIC (K. pneumoniae) | MMC (P. mirabilis ATCC 12453 [2]) | MIC (P. mirabilis ATCC 12453 [2]) | MMC (P. aeruginosa ATCC 27853 [3]) | MIC (P. aeruginosa ATCC 27853 [3]) | MMC (E. coli) | MIC (E. coli) | MMC (S. enterica) | MIC (S. enterica) | MMC (C. albicans ATCC 10231) | MIC (C. albicans ATCC 10231) | other results
C/C(NNC(=O)c1ccc(O)c(O)c1O)=C1\C(=O)Oc2ccccc2C1=O [PCH-1, (E)-N′-(1-(2,4-dioxochroman-3-ylidene)ethyl)-2,3,4-trihydroxybenzohydrazide] | 1.35 mM | 1350 µM (≈ 500 µg/mL) | 2.70 mM | 2700 µM (≈ 1000 µg/mL) | 0.17 mM | 170 µM (≈ 63 µg/mL) | 2.70 mM | 2700 µM (≈ 1000 µg/mL) | 0.34 mM | 170 µM (≈ 63 µg/mL) | 0.17 mM | 80 µM (≈ 29.6 µg/mL) | 0.34 mM | 340 µM (≈ 126 µg/mL) | 0.34 mM | 340 µM (≈ 126 µg/mL) | 0.17 mM | 170 µM (≈ 63 µg/mL) | 0.34 mM | 170 µM (≈ 63 µg/mL) | MMC (S. cerevisiae): 2.70 mM; MIC (S. cerevisiae): 1350 µM (≈ 500 µg/mL); MMC (S. boulardii): 2.70 mM; MIC (S. boulardii): 1350 µM (≈ 500 µg/mL); BIC90 (S. aureus ATCC 25923 [4]): ˃2.70 mM; pIC50 (S. aureus ATCC 25923 [4]): < 2.57; BIC90 (P. mirabilis ATCC 12453 [5]): ˃2.70 mM; pIC50 (P. mirabilis ATCC 12453 [5]): < 2.57; BIC90 (P. aeruginosa ATCC 27853 [6]): ˃2.70 mM; pIC50 (P. aeruginosa ATCC 27853 [6]): < 2.57
C/C(NNC(=O)c1cc(O)c(O)c(O)c1)=C1\C(=O)Oc2ccccc2C1=O [PCH-2, (E)-N′-(1-(2,4-dioxochroman-3-ylidene)ethyl)-3,4,5-trihydroxybenzohydrazide] | 1.35 mM | 1350 µM (≈ 500 µg/mL) | 0.34 mM | 340 µM (≈ 126 µg/mL) | 0.34 mM | 80 µM (≈ 29.6 µg/mL) | 0.67 mM | 670 µM (≈ 248 µg/mL) | 0.34 mM | 170 µM (≈ 63 µg/mL) | 0.17 mM | 80 µM (≈ 29.6 µg/mL) | 0.67 mM | 340 µM (≈ 126 µg/mL) | 0.34 mM | 170 µM (≈ 63 µg/mL) | 0.34 mM | 80 µM (≈ 29.6 µg/mL) | 1.35 mM | 170 µM (≈ 63 µg/mL) | MMC (S. cerevisiae): 2.70 mM; MIC (S. cerevisiae): 1350 µM (≈ 500 µg/mL); MMC (S. boulardii): 2.70 mM; MIC (S. boulardii): 2700 µM (≈ 1000 µg/mL); IC50 (S. aureus ATCC 25923 [4]; ATCC25923, Staphylococcus aureus ATCC 25923, read-out: BIC50): 378 µg/mL; BIC90 (S. aureus ATCC 25923 [4]): ˃2.70 mM; pIC50 (S. aureus ATCC 25923 [4]): 2.99; BIC90 (P. mirabilis ATCC 12453 [5]): ˃2.70 mM; pIC50 (P. mirabilis ATCC 12453 [5]): 2.67; BIC90 (P. aeruginosa ATCC 27853 [6]): ˃2.70 mM; pIC50 (P. aeruginosa ATCC 27853 [6]): < 2.57
